The values that follow come from patent US11873292B2, “Trans-indoline cyclopropylamine chemical compound, and method for preparation, pharmaceutical composition, and use thereof” (Shanghai Institute of Materia Medica, Chinese Academy of …, priority 2016, dated 2024).

Experiment [1] has as its target Human recombinant LSD1 (Homo sapiens (Human), UniProt O60341). Kind of experiment: LSD1 in vitro activity assay (LANCE Ultra LSD1 Histone H3-Lysine 4 Demethylase Assay). Type of experiment: biochemical. The settings on record: LSD1 inhibition. In general terms: Time-resolved FRET reads energy transfer from a long-lived donor to a nearby acceptor.
The target in experiment [2] is Human recombinant MAOA (Homo sapiens (Human), UniProt P21397). Kind of experiment: MAOA in vitro activity experiment (MAO-Glo). Type of experiment: biochemical.
Chain of Human recombinant MAOA (P21397 whole entry): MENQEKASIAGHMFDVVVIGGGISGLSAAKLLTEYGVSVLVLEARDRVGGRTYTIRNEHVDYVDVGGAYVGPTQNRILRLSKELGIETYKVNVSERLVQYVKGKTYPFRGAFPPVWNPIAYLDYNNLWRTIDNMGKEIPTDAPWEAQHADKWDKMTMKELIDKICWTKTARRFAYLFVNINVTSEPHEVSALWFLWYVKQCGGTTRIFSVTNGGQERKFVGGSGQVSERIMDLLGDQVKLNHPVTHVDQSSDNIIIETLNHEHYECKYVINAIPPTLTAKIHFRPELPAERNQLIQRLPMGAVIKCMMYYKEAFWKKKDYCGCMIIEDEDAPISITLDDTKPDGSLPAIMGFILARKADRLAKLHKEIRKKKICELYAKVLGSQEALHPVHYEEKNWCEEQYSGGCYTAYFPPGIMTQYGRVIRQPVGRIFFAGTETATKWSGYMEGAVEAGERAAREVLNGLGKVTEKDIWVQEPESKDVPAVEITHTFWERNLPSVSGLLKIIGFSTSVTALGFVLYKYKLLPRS
Experiment [3] concerns the target human recombinant MAOB (Homo sapiens (Human), UniProt P27338). Description: MAOB in vitro activity experiment (MAO-Glo). Type of experiment: biochemical.
Experiment [4] has as its system Leukemia cell line MV4-11. Kind of experiment: Growth-inhibitory activity by MTS method. The settings on record: Homo sapiens, MV4-11 cells. Type of experiment: cell-based. An excerpt: MTS assay was used to detect the growth inhibitory effect of tested compounds on leukemia cell MV (4:11), the principle of which was that succinate dehydrogenase in mitochondria in living cells can reduce exogenous thiazole blue to insoluble Blue crystalline Formazan.
MATERIALS: Leukemia cell line MV4-11: pediatric acute lymphocytic leukemia, immunological double phenotype, AF4-MLL fusion t (4,11), is a cell growth inhibitory cell line of LSD1 inhibitor (Cancer cell. 2012, 17; 21(4): 473-487).
1. MV4-11 cells in the logarithmic growth phase were taken, accurately counted 16000 cells/mL, and the diluted cell solution was added to a 96-well plate at 90 μL per well.
2. Fresh medium was taken and sequentially added to a 96-well plate with cell fluid, 90 μL per well.
3. In the compound plate, the compound to be tested at a concentration of 10 mM and the positive compounds ORY-1001 and GSK2879552 were taken and subjected to a 3-fold concentration gradient dilution with DMSO, 8 points for each.
4. 2 μL of the diluted compound was separately added to a 96-well plate containing 98 μL of blank medium, and DMSO group was added with 2 μL of DMSO into 98 μL of blank medium, and mixed for use.
5. The compound homogeneously mixed with the medium was separately added to a 96-well plate in which cells were plated in triplicate, 20 μL per well, and well mixed. In the blank group, 200 μL of IMDM medium was added, and in the DMSO group, 180 μL of the cell-containing medium in DMSO diluted with the medium was added.
6. […]
7. After 10 days, MTS was added and the values were read after 2.5 h of incubation.

Like-named read-outs stand apart in the source and are kept apart here.

Chain of human recombinant MAOB (P27338 whole entry): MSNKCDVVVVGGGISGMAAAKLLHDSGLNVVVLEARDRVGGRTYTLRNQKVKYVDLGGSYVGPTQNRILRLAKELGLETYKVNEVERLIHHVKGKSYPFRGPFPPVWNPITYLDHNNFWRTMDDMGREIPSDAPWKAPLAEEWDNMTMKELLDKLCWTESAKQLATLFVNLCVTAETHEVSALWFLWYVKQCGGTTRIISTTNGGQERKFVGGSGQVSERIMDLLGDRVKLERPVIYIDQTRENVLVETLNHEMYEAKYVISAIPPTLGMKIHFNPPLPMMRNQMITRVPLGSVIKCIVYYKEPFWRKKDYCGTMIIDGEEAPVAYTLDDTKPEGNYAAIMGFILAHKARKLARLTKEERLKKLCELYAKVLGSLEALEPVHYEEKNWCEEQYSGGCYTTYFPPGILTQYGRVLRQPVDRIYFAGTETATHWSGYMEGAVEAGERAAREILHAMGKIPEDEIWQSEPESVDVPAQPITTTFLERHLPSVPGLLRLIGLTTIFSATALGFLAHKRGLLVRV

For `O=S(=O)(c1ccccc1)N1CCc2cc([C@@H]3C[C@H]3NC3CCNCC3)ccc21` (relative stereo) [Compound A15, trans-N-(4-piperidinyl)-2-(1-(phenylsulfonyl)indolin-5-yl)cyclopropylamine], the IC50 was 0.0227 ± 0.00037 µM in experiment [1]; > 100 µM in experiment [2]; > 100 µM in experiment [3]; 3.4 ± 1.64 µM in experiment [4] (3 D, read-out: MTS 3 D); 0.18 ± 0.49 µM in experiment [4] (10 D, read-out: MTS 10 D).
Take `O=S(=O)(c1ccccc1)N1CCc2cc([C@@H]3C[C@H]3NCCC3CCNCC3)ccc21` (relative stereo) [Compound A16, trans-N-(4-piperidinylethyl)-2-(1-(phenylsulfonyl)indolin-5-yl)cyclopropylamine]: the IC50 in experiment [2] is > 100 µM; in experiment [3] it was > 100 µM; in experiment [4] (3 D, read-out: MTS 3 D), 8.25 ± 1.7 µM; in experiment [4] (10 D, read-out: MTS 10 D) it was 1.21 ± 0.4 µM.
Regarding `O=S(=O)(c1ccccc1)N1CCc2cc([C@@H]3C[C@H]3NCC3CNC3)ccc21` (relative stereo) [Compound A17, trans-N-(azetidin-3-ylmethyl)-2-(1-(phenylsulfonyl)indolin-5-yl)cyclopropylamine], the figures for the IC50 in experiment [2] and in experiment [3] were 16.2 ± 0.31 µM and 9.22 ± 0.98 µM, respectively.
Taken in the same sequence, the figures for `O=S(=O)(c1ccccc1)N1CCc2cc([C@@H]3C[C@H]3NC3CC4(CCNCC4)C3)ccc21` (relative stereo) [Compound A20, trans-N-(2-(1-(phenylsulfonyl)indolin-5-yl)cyclopropyl)-7-azaspiro[3.5]nonane-2-amine] were > 100 µM and > 100 µM.
`CC1(CN[C@@H]2C[C@H]2c2ccc3c(c2)CCN3S(=O)(=O)c2ccccc2)CCNCC1` (relative stereo) [Compound A21, trans-N-((4-methylpiperidin-4-yl)methyl)-2-(1-(phenylsulfonyl)indolin-5-yl)cyclopropylamine]: the IC50 in experiment [2] and in experiment [3] was > 100 µM throughout.
With `O=S(=O)(c1ccccc1)N1CCc2cc([C@@H]3C[C@H]3NCC3CCN(Cc4ccccc4)CC3)ccc21` (relative stereo) [Compound A24, trans-N-((1-benzylpiperidin-4-yl)methyl)-2-(1-(phenylsulfonyl)indolin-5-yl)cyclopropylamine], the IC50 was 15.9 ± 2 µM in experiment [2] and > 100 µM in experiment [3].
Taken in the same sequence, the figures for `O=S(=O)(c1ccc(-c2ccccc2)cc1)N1CCc2cc([C@@H]3C[C@H]3NCC3CCNCC3)ccc21` (relative stereo) [Compound A32, Trans-2-(1-(biphenyl-4-ylsulfonyl)indolin-5-yl)-N-(piperidin-4-ylmethyl)cyclopropylamine] were > 100 µM and 89.4 ± 2.05 µM.
On to `O=S(=O)(c1ccc2ccccc2c1)N1CCc2cc([C@@H]3C[C@H]3NCC3CCNCC3)ccc21` (relative stereo) [Compound A33, Trans-2-(1-(naphthalen-2-ylsulfonyl)indolin-5-yl)-N-(piperidin-4-ylmethyl)cyclopropylamine], for which the IC50 in experiment [2] was found to be 35.5 ± 0.87 µM; in experiment [3], 82 ± 1.39 µM.
The corresponding values for `O=S(=O)(c1cccc(C(F)(F)F)c1)N1CCc2cc([C@@H]3C[C@H]3NCC3CCNCC3)ccc21` (relative stereo) [Compound A35, trans-N-(piperidin-4-ylmethyl)-2-(1-(3-(trifluoromethyl)benzenesulfonyl)indolin-5-yl)cyclopropylamine] are 49.8 ± 20.9 µM and 86.2 ± 18.7 µM.
On to `O=S(=O)(c1cccc(Cl)c1)N1CCc2cc([C@@H]3C[C@H]3NCC3CCNCC3)ccc21` (relative stereo) [Compound A38, trans-2-(1-(3-chlorobenzenesulfonyl)indolin-5-yl)-N-(piperidin-4-ylmethyl)cyclopropylamine], for which the results for the IC50 in experiment [2] and in experiment [3] were 73.9 ± 1.34 µM and 40.9 ± 1.41 µM, respectively.
On to `COc1cccc(S(=O)(=O)N2CCc3cc([C@@H]4C[C@H]4NCC4CCNCC4)ccc32)c1` (relative stereo) [Compound A39, trans-2-(1-(3-methoxybenzenesulfonyl)indolin-5-yl)-N-(piperidin-4-ylmethyl)cyclopropylamine], for which the figures for the IC50 in experiment [2] and in experiment [3] were 38.6 ± 5.23 µM and > 100 µM, respectively.
`CS(=O)(=O)N1CCc2cc([C@@H]3C[C@H]3NCC3CCNCC3)ccc21` (relative stereo) [Compound A40, Trans-2-(1-(methylsulfonyl)indolin-5-yl)-N-(piperidin-4-ylmethyl)cyclopropylamine]: the IC50 in experiment [2] and in experiment [3] was > 100 µM in each case.
On to `O=S(=O)(N1CCc2cc([C@@H]3C[C@H]3NCC3CCNCC3)ccc21)C(F)(F)F` (relative stereo) [Compound A42, trans-N-(piperidin-4-ylmethyl)-2-(1-(trifluoromethanesulfonyl)indolin-5-yl)cyclopropylamine], for which the IC50 in experiment [2] came out at 86.6 ± 1.05 µM; in experiment [3], 3.14 ± 0.15 µM.
On to `O=S(=O)(C1CCCCC1)N1CCc2cc([C@@H]3C[C@H]3NCC3CCNCC3)ccc21` (relative stereo) [Compound A43, trans-2-(1-(cyclohexylsulfonyl)indolin-5-yl)-N-(piperidin-4-ylmethyl)cyclopropylamine], for which the IC50 in experiment [2] and in experiment [3] was > 100 µM each time.
As to `O=C(c1ccccc1)N1CCc2cc([C@@H]3C[C@H]3NCC3CCNCC3)ccc21` (relative stereo) [Compound A45, trans-phenyl (5-(2-(piperidin-4-ylmethylamino)cyclopropyl)indolin-1-yl)methanone], the IC50 in experiment [2] is > 100 µM; in experiment [3] it was 32.9 ± 1.24 µM; in experiment [4] (3 D, read-out: MTS 3 D), > 20 µM; in experiment [4] (10 D, read-out: MTS 10 D), 4.14 ± 3.47 µM.
Taken in the same sequence, the figures for `O=C(Cc1ccccc1)N1CCc2cc([C@@H]3C[C@H]3NCC3CCNCC3)ccc21` (relative stereo) [Compound A49, Trans-2-phenyl-1-(5-(2-(piperidin-4-ylmethylamino)cyclopropyl)indolin-1-yl)ethanone] were > 100 µM, > 100 µM, > 20 µM and 3.23 ± 3.64 µM.
On to `CCC(=O)N1CCc2cc([C@@H]3C[C@H]3NCC3CCNCC3)ccc21` (relative stereo) [Compound A53, Trans-1-(5-(2-(piperidin-4-ylmethylamino)cyclopropyl)indolin-1-yl)propan-1-one], for which the IC50 in experiment [2] and in experiment [3] was > 100 µM in each case.
`CCCC(=O)N1CCc2cc([C@@H]3C[C@H]3NCC3CCNCC3)ccc21` (relative stereo) [Compound A54, Trans-1-(5-(2-(piperidin-4-ylmethylamino)cyclopropyl)indolin-1-yl)butan-1-one]: the IC50 in experiment [2] and in experiment [3] was > 100 µM throughout.
As to `CCCCC(=O)N1CCc2cc([C@@H]3C[C@H]3NCC3CCNCC3)ccc21` (relative stereo) [Compound A55, Trans-1-(5-(2-(piperidin-4-ylmethylamino)cyclopropyl)indolin-1-yl)pentan-1-one], the IC50 in experiment [2] and in experiment [3] was > 100 µM each time.
`COCCC(=O)N1CCc2cc([C@@H]3C[C@H]3NCC3CCNCC3)ccc21` (relative stereo) [Compound A56, Trans-3-methoxy-1-(5-(2-(piperidin-4-ylmethylamino)cyclopropyl)indolin-1-yl)propan-1-one]: the IC50 in experiment [1] was 0.0269 ± 0.0221 µM; in experiment [2], > 100 µM; in experiment [3], > 100 µM.
Regarding `CC(C)(C)C(=O)N1CCc2cc([C@@H]3C[C@H]3NCC3CCNCC3)ccc21` (relative stereo) [Compound A58, Trans-2,2-dimethyl-1-(5-(2-(piperidin-4-ylmethylamino)cyclopropyl)indolin-1-yl)propan-1-one], the IC50 was > 100 µM in experiment [2]; 70.7 ± 12.6 µM in experiment [3]; > 20 µM in experiment [4] (3 D, read-out: MTS 3 D); 1.23 ± 1.13 µM in experiment [4] (10 D, read-out: MTS 10 D).
Turning to `O=S(=O)(c1ccccc1)N1CCc2cc(C3CC3NCc3c[nH]c4ccccc34)ccc21` (stereo not shown) [Compound A8], the IC50 in experiment [4] (3 D, read-out: MTS 3 D) turned out to be 1.25 ± 0.51 µM; in experiment [4] (10 D, read-out: MTS 10 D) it was 0.6 ± 0.13 µM.
Taken in the same sequence, the figures for `O=S(=O)(c1ccccc1)N1CCc2cc(C3CC3NCC3CCNCC3)ccc21` (stereo not drawn) [Compound A14, trans-N-(4-piperidinylmethylene)-2-(1-(phenylsulfonyl)indolin-5-yl)cyclopropylamine] were 7.91 ± 1.61 µM and 1.36 ± 0.92 µM.
Regarding `NC1CCC(CNC2CC2c2ccc3c(c2)CCN3S(=O)(=O)c2ccccc2)CC1` (stereo not drawn) [Compound A18, trans-4-((2-(1-(phenylsulfonyl)indolin-5-yl)cyclopropylamino)methyl)cyclohexylamine], the IC50 in experiment [2] was 96.3 ± 2.05 µM.
As for `NC1CCC(NC2CC2c2ccc3c(c2)CCN3S(=O)(=O)c2ccccc2)CC1` (stereo not drawn) [Compound A19, trans-N1-(2-(1-(phenylsulfonyl)indolin-5-yl)cyclopropyl)cyclohexane-1,4-diamine], the IC50 in experiment [4] (3 D, read-out: MTS 3 D) was determined as 8.55 ± 1.84 µM; in experiment [4] (10 D, read-out: MTS 10 D), 1.16 ± 0.26 µM.
